Counter-ions that a name gives are not always drawn. Like-named read-outs stand apart in the source and are kept apart here.
Target: HPK full length, T165E S171E (Homo sapiens (Human), UniProt Q92918, S171E/T165E)
Experiment: HPK1-FL HTRF enzymatic assay ("HTRF")
Format: biochemical
Settings: ATP 1 mM
Description: Assay Principle: HPK-FL enzyme phosphorylates Biotin-SLP-76 substrate in the presence of ATP at […] and varying concentrations of test compound. Product is detected by FRET using Eu-anti-pSLP76 Ab and SA-XL665. Also see www.cisbio.com/HTRF for additional HTRF technology information.
Instrumentation: Echo555 compound dispenser; Agilent Bravo; Perkin Elmer Envision.
To a 384 well Proxiplate with 80 nL compound or DMSO spotted on was added 4 μl/well kinase mix. The mixture was preincubated for 30 minutes and then 4 μl/well substrate mix was added. The solution was incubated for 60 min and then 4 μl/well detection mix was added. The solution was incubated for another 60 min.
Exemplary compounds were tested in the HTRF binding assays.

HPK full length, T165E S171E, sequence (Q92918 whole entry T165E/S171E, looked up): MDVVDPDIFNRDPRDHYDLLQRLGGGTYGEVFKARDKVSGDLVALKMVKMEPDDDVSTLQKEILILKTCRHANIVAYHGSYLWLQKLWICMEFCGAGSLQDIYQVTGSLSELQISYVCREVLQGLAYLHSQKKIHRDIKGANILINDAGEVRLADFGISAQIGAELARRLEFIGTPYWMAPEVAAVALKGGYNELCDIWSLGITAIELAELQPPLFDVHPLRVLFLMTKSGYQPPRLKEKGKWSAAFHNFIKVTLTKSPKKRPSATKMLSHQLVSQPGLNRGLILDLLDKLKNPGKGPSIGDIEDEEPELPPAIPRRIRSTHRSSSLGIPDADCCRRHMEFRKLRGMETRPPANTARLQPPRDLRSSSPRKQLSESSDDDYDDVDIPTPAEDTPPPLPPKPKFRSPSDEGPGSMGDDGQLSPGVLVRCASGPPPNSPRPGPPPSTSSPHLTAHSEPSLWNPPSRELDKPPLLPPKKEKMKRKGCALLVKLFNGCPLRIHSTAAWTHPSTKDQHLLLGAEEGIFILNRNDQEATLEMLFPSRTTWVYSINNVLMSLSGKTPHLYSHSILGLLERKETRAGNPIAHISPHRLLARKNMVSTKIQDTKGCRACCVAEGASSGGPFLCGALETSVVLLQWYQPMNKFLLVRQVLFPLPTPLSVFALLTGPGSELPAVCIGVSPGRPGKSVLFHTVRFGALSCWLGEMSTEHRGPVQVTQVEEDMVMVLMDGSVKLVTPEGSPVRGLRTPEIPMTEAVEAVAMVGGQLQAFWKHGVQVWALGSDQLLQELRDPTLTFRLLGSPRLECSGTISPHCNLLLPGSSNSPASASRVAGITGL

## Cc1c(-c2cc3cc(NC(=O)O[C@H]4C[C@@H](C(=O)N5CCC5)C4)ncc3c(N)c2F)cnc2c1NCCO2 [Compound 517a, (1s,3s)-3-(Azetidine-1-carbonyl)cyclobutyl (8-amino-7-fluoro-6-(8-methyl-2,3-dihydro-1H-pyrido[2,3-b][1,4]oxazin-7-yl)isoquinolin-3-yl)carbamate]
read-out: HPK1 Ki
  Ki: < 0.013 nM

## Cc1c(-c2cc3cc(NC(=O)O[C@@H]4COC[C@H]4F)ncc3c(N)c2F)cnc2c1NCCO2 [Compound 477a, (3R,4R)-4-Fluorotetrahydrofuran-3-yl (8-amino-7-fluoro-6-(8-methyl-2,3-dihydro-1H-pyrido[2,3-b][1,4]oxazin-7-yl)isoquinolin-3-yl)carbamate]
read-out: HPK1 Ki
  Ki: 0.034 nM

## Cc1c(-c2cc3cc(NC(=O)OC[C@@]4(F)CCN(C)C4)ncc3c(N)c2F)cnc2c1NCCO2 (single isomer, unassigned) [Compound 451a]
read-out: HPK1 Ki
  Ki: 0.14 nM

## Cc1c(-c2cc3cc(NC(=O)O[C@@H]4CCNC4)ncc3c(N)c2F)cnc2c1NCCO2 (single isomer, unassigned) [Compound 405a]
read-out: HPK1 Ki
  Ki: 0.138 nM

## Cc1c(-c2cc3cc(NC(=O)N[C@@H]4CCN(C)C[C@H]4F)ncc3c(N)c2F)cnc2c1NCCO2 (single isomer, unassigned) [Compound 703a]
read-out: HPK1 Ki
  Ki: 0.022 nM

## Cc1c(-c2cc3cc(NC(=O)O[C@@H](C)CO)ncc3c(N)c2F)cnc2c1NCCO2 (single isomer, unassigned) [Compound 530b, (5)-1-Hydroxypropan-2-yl (8-amino-7-fluoro-6-(8-methyl-2,3-dihydro-1H-pyrido[2,3-b][1,4]oxazin-7-yl)isoquinolin-3-yl)carbamate]
read-out: HPK1 Ki
  Ki: 0.11 nM

## Cc1c(-c2cc3cc(NC(=O)OC4CC(O)C4)ncc3c(N)c2F)cnc2c1NC[C@@H](C)C2 (single isomer, unassigned) [Compound 560a]
read-out: HPK1 Ki
  Ki: 0.019 nM

## Cc1c(-c2cc3cc(NC(=O)O[C@H]4CC(=O)N(C(C)C)C4)ncc3c(N)c2F)cnc2c1NCCO2 (single isomer, unassigned) [Compound 479a]
read-out: HPK1 Ki
  Ki: 0.021 nM

## Cc1c(-c2cc3cc(NC(=O)O[C@@H]4CC[C@@](C)(O)C4)ncc3c(N)c2F)cnc2c1NCCO2 (single isomer, unassigned) [Compound 533a, hydrochloride]
read-out: HPK1 Ki
  Ki: 0.035 nM

## Cc1c(-c2cc3cc(NC(=O)N4CC(C)(O)C4)ncc3c(N)c2F)cnc2c1NCCO2 [Compound 754]
read-out: HPK1 Ki
  Ki: 0.205 nM

## CCNC(=O)Nc1cc2cc(-c3cnc4c(c3C)NCCO4)c(F)c(N)c2cn1 [Compound 720, 1-(8-Amino-7-fluoro-6-(8-methyl-2,3-dihydro-1H-pyrido[2,3-b][1,4]oxazin-7-yl)isoquinolin-3-yl)-3-ethylurea]
read-out: HPK1 Ki
  Ki: < 0.013 nM

## Cc1c(-c2cc3cc(NC(=O)O[C@H]4C[C@](C)(O)C4)ncc3c(N)c2F)cnc2c1NCCO2 [Compound 486b, (1r,3r)-3-Hydroxy-3-methylcyclobutyl (8-amino-7-fluoro-6-(8-methyl-2,3-dihydro-1H-pyrido[2,3-b][1,4]oxazin-7-yl)isoquinolin-3-yl)carbamate]
read-out: HPK1 Ki
  Ki: 0.018 nM

## Cc1c(-c2cc3cc(NC(=O)O[C@@H]4CO[C@H]5COC[C@H]54)ncc3c(N)c2F)cnc2c1NCCO2 [Compound 563a, (3S,3aR,6aR)-Hexahydrofuro[3,4-b]furan-3-yl (8-amino-7-fluoro-6-(8-methyl-2,3-dihydro-1H-pyrido[2,3-b][1,4]oxazin-7-yl)isoquinolin-3-yl)carbamate]
HPK1 Ki
  Ki: 0.219 nM

## CNC(=O)Nc1cc2cc(-c3cnc4c(c3C)NCCC4)c(F)c(N)c2cn1 [Compound 705, 1-[8-Amino-7-fluoro-6-(4-methyl-5,6,7,8-tetrahydro-1,5-naphthyridin-3-yl)-3-isoquinolyl]-3-methyl-urea]
read-out: HPK1 Ki
  Ki: 0.15 nM

## Cc1c(-c2cc3cc(NC(=O)O[C@@H]4CC[C@](C)(O)C4)ncc3c(N)c2F)cnc2c1NCCO2 (single isomer, unassigned) [Compound 533d, hydrochloride]
read-out: HPK1 Ki
  Ki: 0.015 nM

## Cc1c(-c2cc(N)c3cnc(NC(=O)O[C@H]4COC[C@@H]4C)cc3c2)cnc2c1NCCO2 (single isomer, unassigned) [Compound 556a, hydrochloride]
read-out: HPK1 Ki
  Ki: 0.032 nM

## Cc1c(-c2cc3cc(NC(=O)O[C@H]4C[C@@H](S(C)(=O)=O)C4)ncc3c(N)c2F)cnc2c1NCCO2 [Compound 572a, (1s,3s)-3-(Methylsulfonyl)cyclobutyl (8-amino-7-fluoro-6-(8-methyl-2,3-dihydro-1H-pyrido[2,3-b][1,4]oxazin-7-yl)isoquinolin-3-yl)carbamate]
read-out: HPK1 Ki
  Ki: < 0.013 nM

## Cc1c(-c2cc3cc(NC(=O)OC4CCN(C5COC5)CC4)ncc3c(N)c2F)cnc2c1NCCO2 [Compound 421, 1-(Oxetan-3-yl)piperidin-4-yl (8-amino-7-fluoro-6-(8-methyl-2,3-dihydro-1H-pyrido[2,3-b][1,4]oxazin-7-yl)isoquinolin-3-yl)carbamate]
read-out: HPK1 Ki
  Ki: < 0.013 nM

## Cc1c(-c2cc3cc(NC(=O)N[C@@H]4CCOC[C@@H]4F)ncc3c(N)c2F)cnc2c1NCCO2 (single isomer, unassigned) [Compound 747b]
HPK1 Ki
  Ki: < 0.013 nM

## Cc1c(-c2cc3cc(NC(=O)O[C@H]4CCN([C@@H]5CCOC5)C[C@H]4F)ncc3c(N)c2F)cnc2c1NCCO2 [Compound 569d, (3R,4S)-3-fluoro-1-((R)-tetrahydrofuran-3-yl)piperidin-4-yl (8-amino-7-fluoro-6-(8-methyl-2,3-dihydro-1H-pyrido[2,3-b][1,4]oxazin-7-yl)isoquinolin-3-yl)carbamate]
HPK1 Ki
  Ki: 0.031 nM

## Cc1c(-c2cc3cc(NC(=O)O[C@@H]4CC(=O)N(C)C4)ncc3c(N)c2F)cnc2c1NCCC2 (single isomer, unassigned) [Compound 481b]
read-out: HPK1 Ki
  Ki: 0.018 nM

## Cc1c(-c2cc3cc(NC(=O)O[C@@H]4CC[C@H](O)C4)ncc3c(N)c2F)cnc2c1NCCO2 (single isomer, unassigned) [Compound 582b]
read-out: HPK1 Ki
  Ki: 0.02 nM

## Cc1c(-c2cc3cc(NC(=O)O[C@@H]4CC(=O)N(C(C)C)C4)ncc3c(N)c2F)cnc2c1NCCO2 (single isomer, unassigned) [Compound 479b]
read-out: HPK1 Ki
  Ki: < 0.013 nM

## CO[C@@H]1COC[C@@H]1NC(=O)Nc1cc2cc(-c3cnc4c(c3C)NCCO4)c(F)c(N)c2cn1 (single isomer, unassigned) [Compound 723a]
read-out: HPK1 Ki
  Ki: 0.469 nM

## Cc1c(-c2cc3cc(NC(=O)O[C@@H]4COC[C@@H]4C)ncc3c(N)c2F)cnc2c1NCCO2 (single isomer, unassigned) [Compound 441d]
read-out: HPK1 Ki
  Ki: 0.32 nM

## Cc1c(-c2cc3cc(NC(=O)O[C@H]4C[C@H](n5ccnc5)C4)ncc3c(N)c2F)cnc2c1NCCO2 [Compound 514a, (1r,3r)-3-(1H-Imidazol-1-yl)cyclobutyl (8-amino-7-fluoro-6-(8-methyl-2,3-dihydro-1H-pyrido[2,3-b][1,4]oxazin-7-yl)isoquinolin-3-yl)carbamate hydrochloride]
read-out: HPK1 Ki
  Ki: < 0.013 nM

## Cc1c(-c2cc3cc(NC(=O)OC4CCN(C)CC4(C)C)ncc3c(N)c2F)cnc2c1NCCO2 (stereo not shown) [Compound 435, (1,3,3-Trimethyl-4-piperidyl) N-[8-amino-7-fluoro-6-(8-methyl-2,3-dihydro-1H-pyrido[2,3-b][1,4]oxazin-7-yl)-3-isoquinolyl]carbamate]
read-out: HPK1 Ki
  Ki: 0.187 nM

## Cc1c(-c2cc3cc(NC(=O)N[C@@H]4CC[C@H](C#N)C4)ncc3c(N)c2F)cnc2c1NCCO2 (single isomer, unassigned) [Compound 726a]
read-out: HPK1 Ki
  Ki: < 0.013 nM

## Cc1c(-c2cc3cc(NC(=O)O[C@@H]4CCCNC4)ncc3c(N)c2F)cnc2c1NCCO2 (single isomer, unassigned) [Compound 408b]
read-out: HPK1 Ki
  Ki: 0.069 nM

## Cc1c(-c2cc3cc(NC(=O)OC4CN(S(C)(=O)=O)C4)ncc3c(N)c2F)cnc2c1NCCO2 [Compound 552, 1-(Methylsulfonyl)azetidin-3-yl (8-amino-7-fluoro-6-(8-methyl-2,3-dihydro-1H-pyrido[2,3-b][1,4]oxazin-7-yl)isoquinolin-3-yl)carbamate]
read-out: HPK1 Ki
  Ki: 0.014 nM

## Cc1c(-c2cc3cc(NC(=O)O[C@H]4C[C@@H](C(C)(C)C#N)C4)ncc3c(N)c2F)cnc2c1NCCO2 [Compound 549a, (1s,3s)-3-(2-Cyanopropan-2-yl)cyclobutyl (8-amino-7-fluoro-6-(8-methyl-2,3-dihydro-1H-pyrido[2,3-b][1,4]oxazin-7-yl)isoquinolin-3-yl)carbamate]
read-out: HPK1 Ki
  Ki: < 0.013 nM

## Cc1c(-c2cc3cc(NC(=O)O[C@H]4CC(=O)N(C)C4)ncc3c(N)c2F)cnc2c1NCCO2 (single isomer, unassigned) [Compound 410a]
read-out: HPK1 Ki
  Ki: 0.167 nM

## Cc1c(-c2cc3cc(NC(=O)N[C@H]4C[C@@H](F)C4)ncc3c(N)c2F)cnc2c1NCCO2 [Compound 748a, 1-(8-Amino-7-fluoro-6-(8-methyl-2,3-dihydro-1H-pyrido[2,3-b][1,4]oxazin-7-yl)isoquinolin-3-yl)-3-((1s,3s)-3-fluorocyclobutyl)urea]
read-out: HPK1 Ki
  Ki: < 0.013 nM

## Cc1c(-c2cc3cc(NC(=O)O[C@H]4CO[C@@H]5OCC[C@@H]54)ncc3c(N)c2F)cnc2c1NCCO2 (single isomer, unassigned) [Compound 568a]
read-out: HPK1 Ki
  Ki: 0.185 nM

## CC[C@H]1COC[C@@H]1OC(=O)Nc1cc2cc(-c3cnc4c(c3C)NCCO4)c(F)c(N)c2cn1 (single isomer, unassigned) [Compound 515b]
read-out: HPK1 Ki
  Ki: 0.017 nM

## Cc1c(-c2cc3cc(NC(=O)O[C@H]4C[C@@H](CO)C4)ncc3c(N)c2F)cnc2c1NCCO2 [Compound 571b, (1s,3s)-3-(Hydroxymethyl)cyclobutyl (8-amino-7-fluoro-6-(8-methyl-2,3-dihydro-1H-pyrido[2,3-b][1,4]oxazin-7-yl)isoquinolin-3-yl)carbamate]
read-out: HPK1 Ki
  Ki: < 0.013 nM

## Cc1c(-c2cc3cc(NC(=O)OC4CN(C(=O)[C@H]5C[C@@H]5F)C4)ncc3c(N)c2F)cnc2c1NCCO2 (single isomer, unassigned) [Compound 545a]
read-out: HPK1 Ki
  Ki: 0.021 nM

Reference: patent publication US11612606B2, “8-aminoisoquinoline compounds and uses thereof” (priority 2018, dated 2023)
